Experimental data reported in patent US7915297B2, “Isoxazole derivatives and use thereof” (SK Holdings Co., Ltd., priority 2005, dated 2011).

Experiments:
[1] = test system: ST-2, a murine bone marrow stromal T cell; experiment: Differentiation of ST2 cell line into osteoblasts, alkaline phosphatase activity; assay type: cell-based; conditions: Mus musculus, 96 h; ST-2 cells, 11 μM compound, 4 days; control treated only with ascorbic acid and β-glycerolphosphate = 100; read-out: ALP Activity (% Control)
Experimental: The derivatives synthesized according to the present invention were assayed for their ability to differentiate stem cells into osteoblasts. In this regard, ST-2, a murine bone marrow stromal T cell, was used to measure the activity of bone-specific alkaline phosphatase, a marker of early-stage osteoblast differentiation. In detail, the cell line was cultured in an MEM supplemented with penicillin-streptomycin (100 Units/mL) and heat-inactivated 5% fetal bovine serum under standard culture conditions (5% CO2, 37° C., 100% relative humidity). […] The suspension was diluted with the same medium to adjust the cell count to 5,000˜10,000 cells per well, and was moved in a 96-well microtiter, subsequently. After being incubated for 24 hrs, the cells were treated in a medium containing 50 μg/ml of ascorbic acid and 5 mM of β-glycerolphosphate with various concentrations of the isoxazole derivatives synthesized in Preparation Examples. During incubation for one to nine days, the Alkaline phosphatase activity was analyzed using a […] Assay kit (Promega, U.S.A.) according to the protocol described in the manual provided by the manufacturer. The activities were measured in cells which had been incubated at 11 μM of each of the compounds for 4 days. Data on the activities of the isoxazole derivatives synthesized are given in Tables 44 to 47 and are expressed as percentages of ALP relative to that measured in the control, which was treated only with ascorbic acid and β-glycerolphosphate. ALP activities according to the concentrations of Derivative (1) are depicted in FIG. 5.

[2] = test system: Wnt/β-catenin signaling (β-catenin activity) in SW480 cell line; experiment: Cell-based Wnt agonist screening, TCF luciferase reporter, SW480 (TCF-FL); design: species or system human; conditions: Homo sapiens, % of LiCl (20 mM), 24 h, read-out: Max. Activity (%); for Emax at 120 µM: Con. 120 μM; for Emax at 30 µM: Con. 30 μM; for Emax at 1 µM: Con. 1 μM
Outline: (§1)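 HEK293 and SW480 lines stably carried a 5X TCF firefly luciferase reporter under G418 selection. Cells (8,000–15,000/well, RPMI 1640 with 5% FBS) were grown 24 h, then treated with compound for 24 h. Luciferase activity was expressed as percent of the 20 mM LiCl positive control.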

[3] = test system: Wnt/β-catenin signaling (β-catenin activity) in HEK293 cell line; experiment: Cell-based Wnt agonist screening, TCF luciferase reporter, HEK293 (TCF-FL); design: species or system human; conditions: Homo sapiens, HEK293, 24 h, % of LiCl (20 mM), 24 h, read-out: Max. Activity (%); for Emax at 120 µM: Conc. 120 μM
Outline: as §1

| SMILES | activity at 11 µM [1] [%] | Emax at 120 µM [2] [%] | Emax at 30 µM [2] [%] | also measured |
| --- | --- | --- | --- | --- |
| O=C(NCCCn1ccnc1)c1cc(-c2ccc(Cl)cc2)on1 [Derivative (98), 5-(4-chloro-phenyl)-isoxazole-3-carboxylic acid (3-imidazol-1-yl-propyl)-amide] | 90 | 54 |  | Emax at 120 µM [3]: 54% |
| Cc1cncn1CCNC(=O)c1cc(-c2ccco2)on1 [Derivative (36), 5-furan-2-yl-isoxazole-3-carboxylic acid [2-(5-methyl-imidazol-1-yl)-ethyl]-amide] | 396 | 283 |  | Emax at 120 µM [3]: 71% |
| O=C(NCCc1ccc(O)c(O)c1)c1cc(-c2ccco2)on1 [Derivative (28), 5-furan-2-yl-isoxazole-3-carboxylic acid [2-(3,4-dihydroxy-phenyl)-ethyl]-amide] | 436 |  | < 20 | Emax at 30 µM ([3]; Conc. 30 μM): < 20% |
| COc1ccc(-c2cc(C(=O)NCCCn3ccnc3)no2)cc1 [Derivative (101), 5-(4-methoxy-phenyl)-isoxazole-3-carboxylic acid (3-imidazol-1-yl-propyl)-amide] | 592 | 205 |  | Emax at 120 µM [3]: 205% |
| Cc1nccn1CCNC(=O)c1cc(-c2ccco2)on1 [Derivative (35), 5-furan-2-yl-isoxazole-3-carboxylic acid [2-(2-methyl-imidazol-1-yl)-ethyl]-amide] | 686 | 130 |  | Emax at 120 µM [3]: 35% |
| Cc1ccc(N2CCN(CCNC(=O)c3cc(-c4ccco4)on3)CC2)cc1 [Derivative (183), 5-furan-2-yl-isoxazole-3-carboxylic acid {2-[4-(4-methylphenyl)-piperazin-1-yl]-ethyl}-amide] | 127 | 114 |  |  |
| O=C(NCCS(=O)(=O)Nc1ccccc1)c1cc(-c2cccs2)on1 [Derivative (220), 5-thiophen-2-yl-isoxazole-3-carboxylic acid (2-phenylsulfamoyl-ethyl)-amide] | 187 | 182 |  |  |
| COc1ccc(N2CCN(CCNC(=O)c3cc(-c4ccco4)on3)CC2)c(OC)c1 [Derivative (187), 5-furan-2-yl-isoxazole-3-carboxylic acid {2-[4-(2,4-dimethoxyphenyl)-piperazin-1-yl]-ethyl}-amide] | 99 | 179 |  |  |
| O=C(NCCN1CCN(c2ccc([N+](=O)[O-])cc2)CC1)c1cc(-c2ccco2)on1 [Derivative (180), 5-furan-2-yl-isoxazole-3-carboxylic acid {2-[4-(4-nitrophenyl)-piperazin-1-yl]-ethyl}-amide] | 181 | 45 |  |  |
| O=C(NCCn1cncn1)c1cc(-c2ccoc2)on1 [Derivative (154), 5-furan-3-yl-isoxazole-3-carboxylic acid (2-[1,2,4]-triazol-1-yl-ethyl)-amide] | 310 | 113 |  |  |
| Cc1cccnc1N1CCN(CCNC(=O)c2cc(-c3ccco3)on2)CC1 [Derivative (190), 5-furan-2-yl-isoxazole-3-carboxylic acid {2-[4-(3-methyl-pyridin-2-yl)-piperazin-1-yl]-ethyl}-amide] | 269 | 372 |  |  |
| COc1cccnc1N1CCN(CCNC(=O)c2cc(-c3ccco3)on2)CC1 [Derivative (189), 5-furan-2-yl-isoxazole-3-carboxylic acid {2-[4-(3-methoxy-pyridin-2-yl)-piperazin-1-yl]-ethyl}-amide] | 220 |  | 238 |  |
| O=C(NCCCn1cncn1)c1cc(-c2cc3ccccc3o2)on1 [Derivative (170), 5-benzofuran-2-yl-isoxazole-3-carboxylic acid (3-[1,2,4]triazol-1-yl-propyl)-amide] | 74 |  | 46 |  |
| COc1ccc(N2CCN(CCNC(=O)c3cc(-c4ccco4)on3)CC2)cc1OC [Derivative (186), 5-furan-2-yl-isoxazole-3-carboxylic acid {2-[4-(3,4-dimethoxyphenyl)-piperazin-1-yl]-ethyl}-amide] | 272 |  | 553 |  |
| COc1cccc(N2CCN(CCNC(=O)c3cc(-c4ccco4)on3)CC2)c1 [Derivative (185), 5-furan-2-yl-isoxazole-3-carboxylic acid {2-[4-(3-methoxyphenyl)-piperazin-1-yl]-ethyl}-amide] | 714 |  | 810 |  |
| O=C(NCCN(c1ccccc1)c1ccccc1)c1cc(-c2ccco2)on1 [Derivative (196), 5-furan-2-yl-isoxazole-3-carboxylic acid (2-diphenylamino-ethyl)-amide] | 77 |  | 35 |  |
| O=C(CNC(=O)c1cc(-c2ccco2)on1)Nc1ccccc1 [Derivative (207), 5-furan-2-yl-isoxazole-3-carboxylic acid phenylcarbamoylmethyl-amide] | 47 | 34 |  |  |
| O=C(NCCCn1ccnc1)c1cc(-c2ccc[nH]2)on1 [Derivative (160), 5-(1H-pyrrol-2-yl)-isoxazole-3-carboxylic acid (3-imidazol-1-yl-propyl)-amide] | 158 | 146 |  |  |
| O=C(NCCN1CCN(c2ncccn2)CC1)c1cc(-c2ccco2)on1 [Derivative (192), 5-furan-2-yl-isoxazole-3-carboxylic acid [2-(4-pyrimidin-2-yl-piperazin-1-yl)-ethyl]-amide] | 398 |  | 137 |  |
| CC(C)(C)c1cc(C(=O)NCCCn2ccnc2)no1 [Derivative (167), 5-tert-butyl-3-isoxazole-3-carboxylic acid (3-imidazol-1-yl-propyl)-amide] | 276 | 37 |  |  |
| COc1ccccc1N1CCN(CCNC(=O)c2cc(-c3ccco3)on2)CC1 [Derivative (193), 5-furan-2-yl-isoxazole-3-carboxylic acid {2-[4-(2-methoxyphenyl)-piperazin-1-yl]-ethyl}-amide] | 173 |  | 382 |  |
| O=C(NCCCNc1ccccc1)c1cc(-c2ccco2)on1 [Derivative (201), 5-furan-2-yl-isoxazole-3-carboxylic acid (3-phenylamino-propyl)-amide] | 859 |  |  | Emax at 1 µM [2]: 545% |
| O=C(NCCCn1cncn1)c1cc(C2CCCCC2)on1 [Derivative (165), 5-cyclohexyl-3-isoxazole-3-carboxylic acid (3-[1,2,4]-triazol-1-yl-propyl)-amide] | 92 |  | 45 |  |
| O=C(NCCNC(=O)c1cc(-c2cccs2)on1)c1ccccc1 [Derivative (210), 5-thiophen-2-yl-isoxazole-3-carboxylic acid (2-benzoylamino-ethyl)-amide] | 202 |  |  | Emax at 1 µM [2]: 475% |
| CN(CCNC(=O)c1cc(-c2ccco2)on1)c1ccccc1 [Derivative (202), 5-furan-2-yl-isoxazole-3-carboxylic acid [2-(methyl-phenyl-amino)-ethyl]-amide] | 109 |  | 185 |  |
| O=C(CNC(=O)c1cc(-c2ccco2)on1)c1ccccc1 [Derivative (205), 5-furan-2-yl-isoxazole-3-carboxylic acid (2-oxo-2-phenyl-ethyl)-amide] | 58 |  |  | Emax at 10 µM ([2]; Con. 10 μM): 59% |
| O=C(NCCn1cnnn1)c1cc(-c2ccco2)on1 [Derivative (43), 5-furan-2-yl-isoxazole-3-carboxylic acid (2-tetrazol-1-yl-ethyl)-amide] | 455 | 357 |  |  |
| O=C(NCCNCc1ccccc1)c1cc(-c2ccco2)on1 [Derivative (197), 5-furan-2-yl-isoxazole-3-carboxylic acid (2-benzylamino-ethyl)-amide] | 118 | 84 |  |  |
| CC(C)c1ccc(NCCNC(=O)c2cc(-c3ccco3)on2)cc1 [Derivative (199), 5-furan-2-yl-isoxazole-3-carboxylic acid [2-(4-isopropyl-phenylamino)-ethyl]-amide] | 63 |  | 45 |  |
